Entries after “also recorded” stand apart in the source; their conditions may differ. Where two headings read alike, the source gives them in different places.
Assays:
FTase [1] = target: T1, FTase (Homo sapiens, UniProt P49356); assay: FTase activity assay: transfer of [3H]farnesyl from FPP to recombinant H-Ras-CVLS, Daudi 60,000xg supernatant; format: biochemical
T1 construct: FTase and GGTase I activities from 60,000×g supernatants of human Burkitt lymphoma (Daudi) cells; endogenous in cells; host or cells: human Burkitt lymphoma (Daudi) cells, 60,000xg supernatant (partially purified)
Experimental: FTase and GGTase I activities from 60,000×g supernatants of human Burkitt lymphoma (Daudi) cells (ATCC, Rockville, Md., USA) were assayed as described previously for FTase (41). Briefly, 100 μg of the supernatant was incubated in 50 mM Tris, pH 7.5, 50 μM ZnCl2, 20 mM KCl and 1 mM dithiothreitol (DTT).
Human Burkitt lymphoma (Daudi) cells (ATCC, Rockville, Md.) were grown in suspension in RPMI 1640 medium containing 10% fetal bovine serum (FBS) and 1% Pen-Strep in a humidified 10% CO2 incubator at 37° C. The cells were harvested and sonicated in 50 mM Tris, pH 7.5, 1 mM EDTA, 1 mM EGTA, 25 μg/ml leupeptin, 1 mM phenylmethylsulfonyl fluoride. Homogenates were then spun at 12,000×g and the resulting supernatant further spun at 60,000×g. The supernatant was assayed for both FTase and GGTase I. Briefly, 100 μg of the supernatants was incubated in 50 mM Tris, pH 7.5, 50 μM ZnCl2, 20 mM KCl, 3 mM MgCl2 and 1 mM DTT. […] FPP (625 nM; 16.3 Ci/mmol). For GGTase assays, the reaction was also incubated for 30 minutes at 37° C. but with recombinant H-Ras-CVLL (5 μM) and [^3 H] GGPP (525 nM; 19.0 Ci/mmol). The reaction was stopped and passed through glass fiber filters to separate free and incorporated label. For inhibition studies, the peptidomimetics were premixed with FTase or GGTase I prior to adding the remainder of the reaction mixture. […] Recombinant H-Ras-CVLL was prepared from bacteria (32).
FTase and GGTase I activities from 60,000×g supernatants of human Burkitt lymphoma (Daudi) cells (ATCC, Rockville, Md.) were assayed exactly as described previously for FTase (41).

GGTase I = target: T2, GGTase I (Homo sapiens, UniProt P53609); assay: GGTase I activity assay: transfer of [3H]geranylgeranyl to recombinant H-Ras-CVLL, Daudi 60,000xg supernatant; format: biochemical
T2 construct: FTase and GGTase I activities from 60,000×g supernatants of human Burkitt lymphoma (Daudi) cells; endogenous in cells; host or cells: human Burkitt lymphoma (Daudi) cells, 60,000xg supernatant (partially purified)

rat brain FTase = target: T3, rat brain FTase (Rattus norvegicus, UniProt Q02293); assay: Inhibition of rat brain FTase purified to homogeneity; format: biochemical
T3 construct: 50 nM towards rat brain FTase purified to homogeneity; from tissue; host or cells: rat brain

FTase [2] = target: T1, FTase; assay: Peptidomimetics farnesylation assay (silica gel TLC); format: biochemical
Experimental: The ability of human Burkitt lymphoma (Daudi) FTase to farnesylate peptides and peptidomimetics was determined as described previously (34, 35). Briefly, 25 μl of reaction mixture containing 50 μg of 60,000×g supernatants and 20 μM peptidomimetic in 50 mM Tris, pH 7.5, 50 μM ZnCl2, 20 mM KCl, 3 mM MgCl2, 1 mM DTT and 0.2% octylβ-D-glucoside was incubated for 30 minutes at 37° C., then spotted onto silica gel G TLC sheets (20×20 cm, Brinkmann Instruments), and developed with n-propanol/5 N ammonium hydroxide/water (6:1:1). The dried sheets were sprayed with En^3 Hance (DuPont NEN) and exposed to x-ray film for detection of [^3 H] farnesylated products.

Ras processing = Ras processing assay in EJ3 / Ras transformed 3T3 cells (FIG. 16A); format: cell-based
Experimental: EJ3 cells were treated with peptidomimetics or vehicle for 20-24 h. Cells were lysed in lysis buffer (10 mM Na2 HPO4, pH 7.25, 150 mM NaCl, 0.1% sodium dodecyl sulfate, 1% Triton X-100, 12 mM sodium deoxycholate, 1 mM NaF, 0.2% NaN3, 2 mM PMSF, 25 μg/ml leupeptin) and the lysates were cleared by spinning at 13,000 rpm for 15 minutes. Ras protein was immunoprecipitated overnight at 4° C. with 50 μg of anti-Ras antibody (Y13-259; hybridoma from ATCC, Rockville, Md.) along with 30 μl Protein A-agarose goat anti-rat IgG complex (oncogene Science, Uniondale, N.Y.). Immunoprecipitates were washed 4 times with lysis buffer and the bound proteins were released by heating for 5 minutes in 40 μl SDS-PAGE sample buffer and subsequently electrophoresed on a 12.5% SDS-PAGE.

Rap1A processing = Rap1A processing assay in EJ3 / Ras transformed 3T3 cells (FIG. 16B); format: cell-based
Experimental: For Rap1A processing assays, 50 μg of cell lysates were electrophoresed as described above for Ras processing and transferred to nitrocellulose. These membranes were then blocked with 5% milk in Tris-buffered saline, pH 8.0, containing 0.5% Tween-20 and probed with anti-Rap1A (1 μg/ml in 5% milk/TBS-T; Santa Cruz Biotechnology, Santa Cruz, Calif.). Antibody reactions were visualized using peroxidase-conjugated goat anti-rabbit IgG (Oncogene) and ECL chemiluminescence as described above.

FTase [3] = conditions: published; cited from earlier work

T1 sequence (P49356 whole entry): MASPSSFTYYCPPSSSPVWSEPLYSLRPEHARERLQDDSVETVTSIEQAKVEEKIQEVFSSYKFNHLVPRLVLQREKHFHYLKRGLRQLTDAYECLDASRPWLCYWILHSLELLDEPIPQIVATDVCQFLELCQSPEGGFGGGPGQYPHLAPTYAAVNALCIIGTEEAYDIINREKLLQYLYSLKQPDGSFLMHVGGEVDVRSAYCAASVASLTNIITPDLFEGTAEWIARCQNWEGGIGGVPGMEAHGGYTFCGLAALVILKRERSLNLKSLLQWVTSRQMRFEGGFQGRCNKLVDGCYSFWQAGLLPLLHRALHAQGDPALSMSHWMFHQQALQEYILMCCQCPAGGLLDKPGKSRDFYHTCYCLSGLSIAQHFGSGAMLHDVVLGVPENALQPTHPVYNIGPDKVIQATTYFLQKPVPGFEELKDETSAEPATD
T2 sequence (P53609 whole entry): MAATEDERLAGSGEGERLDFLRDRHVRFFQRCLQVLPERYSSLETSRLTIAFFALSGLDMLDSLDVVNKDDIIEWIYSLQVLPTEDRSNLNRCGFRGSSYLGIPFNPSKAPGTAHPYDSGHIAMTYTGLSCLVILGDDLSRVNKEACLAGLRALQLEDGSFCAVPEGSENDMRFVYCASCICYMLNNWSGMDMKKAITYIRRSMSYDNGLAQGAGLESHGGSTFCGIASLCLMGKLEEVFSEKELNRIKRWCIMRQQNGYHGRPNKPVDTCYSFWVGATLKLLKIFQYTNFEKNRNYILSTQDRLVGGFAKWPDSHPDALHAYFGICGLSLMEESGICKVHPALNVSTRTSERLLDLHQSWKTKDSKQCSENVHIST

Row | selectivity for FTase over GGTase I (FTase [1]) [fold] | Selectivity (FTase [1]; Table 4, FTase over GGTase I) | IC50 (FTase [1]; Table 4, read-out: FTase IC50) [nM] | IC50 (GGTase I; Table 4, read-out: GGTase-I IC50) [nM] | IC50 (GGTase I; read-out: GGTase I IC50) [nM] | IC50 (rat brain FTase) [nM] | Substrate (FTase [2]; Table 4, substrate for farnesylation, TLC) | Compound | farnesylation by FTase (FTase [2]; FIG. 15, listed as 4) | lowest concentration that inhibited Ras processing (Ras processing) [µM] | inhibition of Ras processing (Ras processing; 100 μM) | inhibition of Rap1A processing (Rap1A processing) | IC50 (FTase [3]) [nM]
1 | 877 | 877 | 114 | 100000 | 100000 | 50 | no | N[C@@H](CS)CNc1ccc(-c2cccc(C(=O)O)c2)cc1 [FTI-265, 4-N-[2(R)-amino-3-mercaptopropyl]amino-3'-carboxybiphenyl] | prevented farnesylation; also recorded: not substrates for farnesylation | 50 | potently inhibit Ras processing | not able to inhibit Rap1A geranylgeranylation | –
2 | – | – | – | – | – | – | – | Cys-Ile-Phe-Met (CIFM; printed: Cys-Ile-Phe-Met) | – | – | – | – | 30
